Assay results: patent US20230203098A1, “HUMAN TRANSFERRIN RECEPTOR BINDING PEPTIDE” (priority 2020, published 2023)
Like-named read-outs stand apart in the source and are kept apart here. Where a SMILES comes first, the peptide text is derived from it. Bridges are numbered along the chain shown (N, C = ends). [ ]: non-standard residue; d: D form. NMePhe(3-Cl) = CN[C@@H](Cc1cccc(Cl)c1)C(=O)O; NMeW = CN[C@@H](Cc1c[nH]c2ccccc12)C(=O)O; NMeY = CN[C@@H](Cc1ccc(O)cc1)C(=O)O; PEG4 = NCCOCCOCCOCCOCCC(=O)O; hLys = NCCCCC[C@H](N)C(=O)O

Biological target: transferrin receptor (hTfR) (Homo sapiens, UniProt P02786)
Test: Intermolecular interaction evaluation test between transferrin receptor (hTfR) and peptide by surface plasmon resonance (SPR)
Format: binding
Procedure, shortened: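 hTfR captured on Ni-NTA chip then amine-coupled; peptides run single-cycle kinetics at 5–100 nM in 10 mM HEPES pH 8.0, 150 mM NaCl, 0.05% Tween 20, 0.1% BSA, 1.0% DMSO. KD from least-squares curve fitting of sensorgrams.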

[1] = surface plasmon resonance, peptide vs hTfR, read-out: KD value for hTfR by SPR (class symbol)
[2] = surface plasmon resonance, hTfR, read-out: KD value for hTfR by SPR (class symbol)
[3] = binding to hTfR by SPR, Table 2 peptides, read-out: KD value (SPR) class
[4] = hTfR binding by SPR, hTfR No. 894 variant peptides, linker-added peptides and payload conjugates (Table 2), read-out: KD value obtained from the SPR measurement
[5] = SPR, hTfR, class symbols A-D, read-out: KD (column without head, continuation of the table series)

Chain of transferrin receptor (hTfR) (P02786 whole entry): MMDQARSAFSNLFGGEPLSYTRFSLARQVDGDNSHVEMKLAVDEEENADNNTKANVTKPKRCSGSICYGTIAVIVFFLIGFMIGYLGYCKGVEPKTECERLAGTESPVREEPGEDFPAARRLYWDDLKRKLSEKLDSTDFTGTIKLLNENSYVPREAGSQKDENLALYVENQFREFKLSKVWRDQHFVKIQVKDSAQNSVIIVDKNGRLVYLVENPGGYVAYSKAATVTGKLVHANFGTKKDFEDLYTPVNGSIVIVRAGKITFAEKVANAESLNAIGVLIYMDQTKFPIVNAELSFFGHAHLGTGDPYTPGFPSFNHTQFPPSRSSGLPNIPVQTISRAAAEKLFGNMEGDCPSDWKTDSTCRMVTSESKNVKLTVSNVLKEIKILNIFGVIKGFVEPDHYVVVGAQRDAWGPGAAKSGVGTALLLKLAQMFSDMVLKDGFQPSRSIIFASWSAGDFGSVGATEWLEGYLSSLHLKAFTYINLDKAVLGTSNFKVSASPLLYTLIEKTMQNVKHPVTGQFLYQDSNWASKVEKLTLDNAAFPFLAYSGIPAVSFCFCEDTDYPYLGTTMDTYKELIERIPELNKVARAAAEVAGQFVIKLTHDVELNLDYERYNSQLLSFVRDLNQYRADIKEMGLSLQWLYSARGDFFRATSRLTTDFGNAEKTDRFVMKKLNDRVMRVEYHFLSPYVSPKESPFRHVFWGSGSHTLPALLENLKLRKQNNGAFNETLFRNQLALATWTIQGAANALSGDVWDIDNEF

CC[C@H](C)[C@@H]1NC(=O)[C@H](Cc2ccc(O)cc2)NC(=O)[C@H](Cc2ccc(O)cc2)NC(=O)[C@H](CC(N)=O)NC(=O)[C@H](Cc2c[nH]c3ccccc23)NC(=O)[C@H](C(C)C)NC(=O)[C@H](Cc2ccccc2)N(C)C(=O)[C@H](C(C)C)NC(=O)[C@H](C)NC(=O)CSC[C@@H](C(=O)NCC(=O)O)NC(=O)[C@H](Cc2ccc(O)cc2)N(C)C(=O)[C@H](Cc2ccc(O)cc2)NC(=O)[C@H](CCCNC(=N)N)NC(=O)[C@H](CCCNC(=N)N)NC(=O)[C@H]([C@@H](C)CC)NC1=O [compound 421]
Kd [1]: 0.001 to 0.1 µM

CC[C@H](C)[C@@H]1NC(=O)[C@H](Cc2ccc(OC)cc2)NC(=O)[C@H](Cc2ccc(O)cc2)NC(=O)[C@H](CC(N)=O)NC(=O)[C@H](Cc2c[nH]c3ccccc23)N(C)C(=O)[C@H](C(C)C)NC(=O)[C@H](Cc2cccc(Cl)c2)N(C)C(=O)[C@H](C(C)C)NC(=O)[C@H](C)NC(=O)CSC[C@@H](C(=O)NCC(=O)NCC(=O)NCC(=O)NCC(=O)N[C@@H](CO)C(=O)N[C@@H](CO)C(=O)N[C@@H](CS)C(N)=O)NC(=O)[C@H](Cc2ccc(O)cc2)N(C)C(=O)[C@H](Cc2ccccc2)NC(=O)[C@@H](CCCNC(=N)N)NC(=O)[C@H](CCCCN)NC(=O)[C@H]([C@@H](C)CC)NC1=O [compound 376]
Kd [2]: 0.001 to 0.1 µM

CC[C@H](C)[C@@H]1NC(=O)[C@H](Cc2ccc(O)cc2)NC(=O)[C@H](Cc2ccc(O)cc2)NC(=O)[C@H](CC(N)=O)NC(=O)[C@H](Cc2c[nH]c3ccccc23)NC(=O)[C@H](C(C)C)NC(=O)[C@H](Cc2ccccc2)NC(=O)[C@H](C(C)C)NC(=O)[C@H](C)NC(=O)CSC[C@@H](C(N)=O)NC(=O)[C@H](Cc2ccc(O)cc2)N(C)C(=O)[C@H](Cc2ccc(O)cc2)NC(=O)[C@H](CCCNC(=N)N)NC(=O)[C@H](CCCNC(=N)N)NC(=O)[C@H](CCCNC(=N)N)NC1=O [compound 248]
Kd [3]: 0.001 to 0.1 µM

CC[C@H](C)[C@@H]1NC(=O)[C@H](Cc2ccc(OC)cc2)NC(=O)[C@H](Cc2ccc(O)cc2)NC(=O)[C@H](CC(N)=O)NC(=O)[C@H](Cc2c[nH]c3ccccc23)N(C)C(=O)[C@H](C(C)C)NC(=O)[C@H](Cc2cccc(Cl)c2)N(C)C(=O)[C@H](C(C)C)NC(=O)[C@H](C)NC(=O)CSC[C@@H](C(N)=O)NC(=O)[C@H](Cc2ccc(O)cc2)N(C)C(=O)[C@H](Cc2ccccc2)NC(=O)[C@@H](CCCNC(=N)N)NC(=O)[C@H](CCC(=O)NCCOCCOCCOCCOCCOCCOCCOCCOC)NC(=O)[C@H]([C@@H](C)CC)NC1=O [compound 363]
Kd [2]: 0.001 to 0.1 µM

CC[C@H](C)[C@@H]1NC(=O)[C@H](Cc2ccc(O)cc2)NC(=O)[C@H](Cc2ccc(O)cc2)NC(=O)[C@H](CC(N)=O)NC(=O)[C@H](Cc2c[nH]c3ccccc23)NC(=O)[C@H](C(C)C)NC(=O)[C@H](Cc2ccccc2)N(C)C(=O)[C@H](C(C)C)NC(=O)[C@H](C)NC(=O)CSC[C@@H](C(=O)NCC(=O)N[C@@H](CCCCNC(=O)C2CCC(CN3C(=O)C=CC3=O)CC2)C(N)=O)NC(=O)[C@H](Cc2ccc(O)cc2)N(C)C(=O)[C@H](Cc2ccc(O)cc2)NC(=O)[C@H](CCCNC(=N)N)NC(=O)[C@H](CCCNC(=N)N)NC(=O)[C@H]([C@@H](C)CC)NC1=O (stereo partly drawn) [compound 188]
Kd [4]: 0.001 to 0.1 µM

CC[C@H](C)[C@@H]1NC(=O)[C@H](Cc2ccc(O)cc2)NC(=O)[C@H](Cc2ccc(O)cc2)NC(=O)[C@H](CC(N)=O)NC(=O)[C@H](Cc2c[nH]c3ccccc23)NC(=O)[C@H](C(C)C)NC(=O)[C@H](Cc2ccccc2)N(C)C(=O)[C@H](C(C)C)NC(=O)[C@H](C)NC(=O)CSC[C@@H](C(=O)NCC(=O)NCC(=O)N[C@@H](CCC(=O)O)C(=O)N[C@@H](CO)C(=O)N[C@@H](CCC(=O)O)C(=O)N[C@@H](CO)C(=O)N[C@@H](CCCCNC(=O)C2CCC(CN3C(=O)C=CC3=O)CC2)C(N)=O)NC(=O)[C@H](Cc2ccc(O)cc2)N(C)C(=O)[C@H](Cc2ccc(O)cc2)NC(=O)[C@H](CCCNC(=N)N)NC(=O)[C@H](CCCNC(=N)N)NC(=O)[C@H]([C@@H](C)CC)NC1=O (stereo partly drawn) [compound 192]
Kd [4]: 0.001 to 0.1 µM

CC[C@H](C)[C@@H]1NC(=O)[C@H](Cc2ccc(O)cc2)NC(=O)[C@H](Cc2ccc(O)cc2)NC(=O)[C@H](CC(N)=O)NC(=O)[C@H](Cc2c[nH]c3ccccc23)N(C)C(=O)[C@H](C(C)C)NC(=O)[C@H](Cc2cccc(Cl)c2)N(C)C(=O)[C@H](C(C)C)NC(=O)[C@H](C)NC(=O)CSC[C@@H](C(=O)NCCOCCOCCOCCOCCC(N)=O)NC(=O)[C@H](Cc2ccc(O)cc2)N(C)C(=O)[C@H](Cc2ccccc2)NC(=O)[C@@H](CCCNC(=N)N)NC(=O)C(C)(C)NC(=O)[C@H]([C@@H](C)CC)NC1=O [compound 322]
Kd (surface plasmon resonance, peptide vs hTfR, read-out: KD value, hTfR binding by SPR (class symbol)): 0.001 to 0.1 µM

CC[C@H](C)[C@@H]1NC(=O)[C@H](Cc2ccc(OC)cc2)NC(=O)[C@H](Cc2ccc(O)cc2)NC(=O)[C@H](CC(N)=O)NC(=O)[C@H](Cc2c[nH]c3ccccc23)N(C)C(=O)[C@H](C(C)C)NC(=O)[C@H](Cc2cccc(Cl)c2)N(C)C(=O)[C@H](CCC(=O)O)NC(=O)[C@H](C)NC(=O)CSC[C@@H](C(=O)N[C@H](CCC(=O)O)C(=O)NCC(=O)NCC(=O)NCC(=O)N[C@@H](CO)C(=O)N[C@@H](CO)C(=O)N[C@@H](CS)C(N)=O)NC(=O)[C@H](Cc2ccc(O)cc2)N(C)C(=O)[C@H](Cc2ccccc2)NC(=O)[C@@H](CCCNC(=N)N)NC(=O)[C@H](CCCNC(=N)N)NC(=O)[C@H]([C@@H](C)CC)NC1=O [compound 235]
Kd [3]: 0.1 to 1 µM

CC[C@H](C)[C@@H]1NC(=O)[C@H](Cc2ccc(OC)cc2)NC(=O)[C@H](Cc2ccc(O)cc2)NC(=O)[C@H](CC(N)=O)NC(=O)[C@H](Cc2c[nH]c3ccccc23)N(C)C(=O)[C@H](C(C)C)NC(=O)[C@H](Cc2cccc(Cl)c2)N(C)C(=O)[C@H](C(C)C)NC(=O)[C@H](C)NC(=O)CSC[C@@H](C(=O)N[C@H](CCC(=O)O)C(=O)NCC(=O)NCC(=O)NCC(=O)N[C@@H](CO)C(=O)N[C@@H](CO)C(=O)N[C@@H](CS)C(N)=O)NC(=O)[C@H](Cc2ccc(O)cc2)N(C)C(=O)[C@H](Cc2ccccc2)NC(=O)[C@@H](CCCNC(=N)N)NC(=O)[C@H](CCCNC(=N)N)NC(=O)[C@H]([C@@H](C)CC)NC1=O [compound 402] ({CH2CO}-AV[NMePhe(3-Cl)]V[NMeW]NYY(Me)IIR[dR]F[NMeY]C[dE]GGGSSC-NH2; thioether N-15)
Kd [2]: 0.001 to 0.1 µM

CC[C@H](C)[C@@H]1NC(=O)[C@H](Cc2ccc(OCCN)cc2)NC(=O)[C@H](Cc2ccc(O)cc2)NC(=O)[C@H](CC(N)=O)NC(=O)[C@H](Cc2c[nH]c3ccccc23)NC(=O)[C@H](C(C)C)NC(=O)[C@H](Cc2ccccc2)N(C)C(=O)[C@H](C(C)C)NC(=O)[C@H](C)NC(=O)CSC[C@@H](C(N)=O)NC(=O)[C@H](Cc2ccc(O)cc2)N(C)C(=O)[C@H](Cc2ccccc2)NC(=O)[C@H](CCCNC(=N)N)NC(=O)[C@H](CCCNC(=N)N)NC(=O)[C@H]([C@@H](C)CC)NC1=O [compound 522]
Kd [5]: 0.1 to 1 µM

CC[C@H](C)[C@@H]1NC(=O)[C@H](Cc2ccc(OCCN)cc2)NC(=O)[C@H](Cc2ccc(O)cc2)NC(=O)[C@H](CC(N)=O)NC(=O)[C@H](Cc2c[nH]c3ccccc23)NC(=O)[C@H](C(C)C)NC(=O)[C@H](Cc2ccccc2)N(C)C(=O)[C@H](C(C)C)NC(=O)[C@H](C)NC(=O)CSC[C@@H](C(N)=O)NC(=O)[C@H](Cc2ccc(O)cc2)N(C)C(=O)[C@H](Cc2ccccc2)NC(=O)[C@H](CCCNC(=N)N)NC(=O)[C@H](CCCCN)NC(=O)[C@H]([C@@H](C)CC)NC1=O [compound 521]
Kd [5]: 0.001 to 0.1 µM

CC[C@H](C)[C@@H]1NC(=O)[C@H](Cc2ccc(O)cc2)NC(=O)[C@H](Cc2ccc(O)cc2)NC(=O)[C@H](CC(N)=O)NC(=O)[C@H](Cc2c[nH]c3ccccc23)NC(=O)[C@H](C(C)C)NC(=O)[C@H](Cc2ccccc2)N(C)C(=O)[C@H](C(C)C)NC(=O)[C@H](C)NC(=O)CSC[C@@H](C(=O)NCCOCCOCCOCCOCCC(=O)N[C@H](CCCCNC(=O)c2ccc(-c3c4ccc(=O)cc-4oc4cc(O)ccc34)c(C(=O)O)c2)C(N)=O)NC(=O)[C@H](Cc2ccc(O)cc2)N(C)C(=O)[C@H](Cc2ccc(O)cc2)NC(=O)[C@H](CCCNC(=N)N)NC(=O)[C@H](CCCNC(=N)N)NC(=O)[C@H]([C@@H](C)CC)NC1=O [compound 446]
Kd [1]: < 0.001 µM

CC[C@H](C)[C@@H]1NC(=O)[C@H](Cc2ccc(OC)cc2)NC(=O)[C@H](Cc2ccc(O)cc2)NC(=O)[C@H](CC(N)=O)NC(=O)[C@H](Cc2c[nH]c3ccccc23)N(C)C(=O)[C@H](C(C)C)NC(=O)[C@H](Cc2cccc(Cl)c2)N(C)C(=O)[C@H](C(C)C)NC(=O)[C@H](C)NC(=O)CSC[C@@H](C(N)=O)NC(=O)[C@H](Cc2ccc(O)cc2)N(C)C(=O)[C@H](Cc2cccc(Cl)c2)NC(=O)[C@@H](CCCNC(=N)N)NC(=O)[C@H](CCCNC(=N)N)NC(=O)[C@H]([C@@H](C)CC)NC1=O [compound 393]
Kd [2]: 0.001 to 0.1 µM

CC[C@H](C)[C@@H]1NC(=O)[C@H](Cc2ccc(OC)cc2)NC(=O)[C@H](Cc2ccc(O)cc2)NC(=O)[C@H](CC(N)=O)NC(=O)[C@H](Cc2c[nH]c3ccccc23)N(C)C(=O)[C@H](C(C)C)NC(=O)[C@H](Cc2cccc(Cl)c2)N(C)C(=O)[C@H](C(C)C)NC(=O)[C@H](C)NC(=O)CSC[C@@H](C(=O)NCCOCCOCCOCCOCCC(N)=O)NC(=O)[C@H](Cc2ccc(O)cc2)N(C)C(=O)[C@H](Cc2ccccc2)NC(=O)[C@@H](CCCNC(=N)N)NC(=O)[C@H](CCCCCN)NC(=O)[C@H]([C@@H](C)CC)NC1=O [compound 369] ({CH2CO}-AV[NMePhe(3-Cl)]V[NMeW]NYY(Me)II[hLys][dR]F[NMeY]C[PEG4]-NH2; thioether N-15)
Kd [2]: 0.001 to 0.1 µM

CC[C@H](C)[C@@H]1NC(=O)[C@H](Cc2ccc(OC)cc2)NC(=O)[C@H](Cc2ccc(O)cc2)NC(=O)[C@H](CC(N)=O)NC(=O)[C@H](Cc2c[nH]c3ccccc23)N(C)C(=O)[C@H](C(C)C)NC(=O)[C@H](Cc2cccc(Cl)c2)N(C)C(=O)[C@H](C(C)C)NC(=O)[C@H](C)NC(=O)CSC[C@@H](C(N)=O)NC(=O)[C@H](Cc2ccc(O)cc2)N(C)C(=O)[C@H](Cc2ccccc2)NC(=O)[C@@H](CCCNC(=N)N)NC(=O)C(C)(C)NC(=O)[C@H]([C@@H](C)CC)NC1=O [compound 353]
Kd [2]: 0.001 to 0.1 µM
